Assays:
[1] = tested on: NuTu-19 ovarian cancer cells; test: MTS cell viability assay, cultured NuTu-19 cells; format: cell-based, rat; settings: for effect on the ability of cisplatin to kill NuTu-19 cells: with cisplatin 43 μM, FIG. 2 and 3
Experimental: NuTu-19 cells were plated at a density of 3,000 cells per well in 96 well culture dishes, and incubated at 37° C., in the presence of 5% carbon dioxide, for 24 hours. […] The NuTu-19 cells were then rinsed with media and incubated in the presence of cisplatin for an additional 24 hours.
The NuTu-19 cells were then rinsed twice with phosphate buffered saline (PBS), then MTS assays were performed to measure the number of living cells. MTS is an abbreviation for (3-(4,5-dimethylthiazol-2-yl)-5-(3-carboxymethoxyphenyl)-2-(4-sulfophenyl)-2H-tetrazolium. The MTS assay is a colorimetric method for determining the number of viable cells based upon physiologic catabolism of MTS to a formazan product that is soluble in tissue culture medium. The absorbance of the formazan product at 490 nm can be measured directly from a 96 well plate using a plate reader. Increased absorbance at 490 nm correlates with increased production of formazan in a well. This is typically due to more viable cells present in a well.

[2] = tested on: rSPI-tu epithelial ovarian cancer cells; test: MTT cytotoxicity study with ebselen and allopurinol; format: cell-based, rat; settings: each drug 100 μM, no cisplatin/paclitaxel
Experimental: Each of the cell lines listed above was plated at a density of 3,500 cells per well in 96 well plates and incubated at 37° C. for 24 hours. […] After the one hour incubation, 50 μl of cisplatin and paclitaxel were added to the cell lines at the various concentrations shown in TABLE 2 to achieve an IC50 in the absence of other drugs. […]
[…], 10 μl of MTT (3-(4,5-dimethlythiazol-2-yl)-2,5-diphenyl […] bromide) working solution was added to each well (based on the instructions in the Chemicon MTT Cell Growth Kit Cat #CT01) and the cells were incubated for 4 hours. 100 μl of isopropanol/HCl solution was then added to each well and absorbance at 570 nm was measured.

[3] = tested on: mammalian ovarian cancer cell lines; test: MTT cytotoxicity study, statements over all ovarian cancer cell lines tested; format: cell-based
Experimental: (§1) Each of the cell lines listed above was plated at a density of 3,500 cells per well in 96 well plates and incubated at 37° C. for 24 hours. […] After the one hour incubation, 50 μl of cisplatin and paclitaxel were added to the cell lines at the various concentrations shown in TABLE 2 to achieve an IC50 in the absence of other drugs. The cells were then incubated at 37° C. in 5% CO2 in the presence of the cisplatin and paclitaxel for an additional 67-72 hours.
(§2) After the 67-72 hour incubation period, 10 μl of MTT (3-(4,5-dimethlythiazol-2-yl)-2,5-diphenyl […] bromide) working solution was added to each well (based on the instructions in the Chemicon MTT Cell Growth Kit Cat #CT01) and the cells were incubated for 4 hours. 100 μl of isopropanol/HCl solution was then added to each well and absorbance at 570 nm was measured.

[4] = tested on: CAOV-3 adenocarcinoma ovarian cancer cells; test: MTT cytotoxicity study with ebselen and allopurinol; format: cell-based, human; settings: each drug 100 μM, no cisplatin/paclitaxel
Experimental: as §1, with “67-72 hours. Control wells were included as follows: no drug, ebselen, allopurinol, ebselen and allopurinol, and cisplatin/paclitaxel.” for “67-72 hours.”
as §2, with “measured. The results of the MTT assay for the different ovarian cancer cell lines tested are shown in FIGS. 9A-16C and are summarized below in TABLE 3.” for “measured.”

[5] = tested on: SKOV-3 adenocarcinoma ovarian cancer cells; test: as above; format: cell-based, human; settings: each drug 100 μM, no cisplatin/paclitaxel
Experimental: as §1, with “67-72 hours. Control wells were included as follows: no drug, ebselen, allopurinol, ebselen and allopurinol, and cisplatin/paclitaxel.” for “67-72 hours.”
as §2, with “measured. The results of the MTT assay for the different ovarian cancer cell lines tested are shown in FIGS. 9A-16C and are summarized below in TABLE 3.” for “measured.”

[6] = tested on: ES-2 clear cell carcinoma ovarian cancer cells; test: as above; format: cell-based, human; settings: each drug 100 μM, no cisplatin/paclitaxel
Experimental: as §1, with “67-72 hours. Control wells were included as follows: no drug, ebselen, allopurinol, ebselen and allopurinol, and cisplatin/paclitaxel.” for “67-72 hours.”
as §2, with “measured. The results of the MTT assay for the different ovarian cancer cell lines tested are shown in FIGS. 9A-16C and are summarized below in TABLE 3.” for “measured.”

[7] = tested on: OV-90 papillary serous adenocarcinoma ovarian cancer cells; test: as above; format: cell-based, human; settings: each drug 100 μM, no cisplatin/paclitaxel
Experimental: as §1, with “67-72 hours. Control wells were included as follows: no drug, ebselen, allopurinol, ebselen and allopurinol, and cisplatin/paclitaxel.” for “67-72 hours.”
as §2, with “measured. The results of the MTT assay for the different ovarian cancer cell lines tested are shown in FIGS. 9A-16C and are summarized below in TABLE 3.” for “measured.”

[8] = tested on: TOV-112D adenocarcinoma/endometroid carcinoma ovarian cancer cells; test: as above; format: cell-based, human; settings: each drug 100 μM, no cisplatin/paclitaxel
Experimental: as §1, with “67-72 hours. Control wells were included as follows: no drug, ebselen, allopurinol, ebselen and allopurinol, and cisplatin/paclitaxel.” for “67-72 hours.”
as §2, with “measured. The results of the MTT assay for the different ovarian cancer cell lines tested are shown in FIGS. 9A-16C and are summarized below in TABLE 3.” for “measured.”

[9] = tested on: OVCAR-3 adenocarcinoma ovarian cancer cells; test: as above; format: cell-based, human; settings: each drug 100 μM, no cisplatin/paclitaxel
Experimental: as §1, with “67-72 hours. Control wells were included as follows: no drug, ebselen, allopurinol, ebselen and allopurinol, and cisplatin/paclitaxel.” for “67-72 hours.”
as §2, with “measured. The results of the MTT assay for the different ovarian cancer cell lines tested are shown in FIGS. 9A-16C and are summarized below in TABLE 3.” for “measured.”

NuTu-19 tumors = test: NuTu-19 ovarian cancer tumor model in F-344 rats, tumor response; format: in vivo, rat
Experimental: An ovarian cancer tumor model was established in rats by injection of 10^7 NuTu-19 cells into the peritoneal cavity of 8-10 week old female F-344 rats. Rats with injected NuTu-19 cells were allowed to develop tumor burden for two weeks prior to cisplatin treatment. A control series of 10 rats was evaluated separately for the development of ovarian tumor burden under the described conditions. All rats in the control series were sacrificed 5 weeks after NuTu-19 tumor cell injection and tumor burden was evaluated.
The absence of ascites, but presence of more than 5 visible tumor nodules (each >0.5 mm) in the peritoneal cavity was considered to be an indication that the cancer partially responded to the treatment. The absence of ascites and presence of fewer than 5 visible tumor nodules (each >0.5 mm) was considered to be an indication that the cancer fully responded to the treatment.

[10] = patients receiving cisplatin; Helson 1978; cited from earlier work
[11] = treatment of acute ischemic stroke; cited from earlier work
non-cancer cell line = settings: Baldew et al. 1992; cited from earlier work
[12] = tested on: rats treated with cisplatin; test: Auditory Evoked Brainstem Response (ABR), permanent threshold shift after cisplatin; format: in vivo, rat; settings: 8, 16, 24, 32 kHz; ebselen 16 mg/kg i.p. plus cisplatin 16 mg/kg i.p., versus cisplatin without ebselen; 72 hours; FIG. 6
Experimental: (§3) Auditory Evoked Brainstem Response (ABR) was used to assess hearing in rats before and after exposure to cisplatin and chemoprotectants. Ebselen or DMSO (control vehicle) were introduced intraperitoneally into rats one hour before intraperitoneal administration of cisplatin at a dosage of 16 mg/kg body weight. Seventy-two hours after delivery of cisplatin, ABR data were collected, animals were sacrificed, cochleae were collected, dissected, stained with FITC-phalloidin (to detect F-Actin in hair cells), and DAPI (to detect nuclear DNA).
Ten cochlea were tested per treatment. The PTS is a measure of hearing loss.
Four cochlea were tested per treatment.

inner ear hair cells = test: Cochlea explant culture, inner ear hair cell count (calbindin/DAPI); format: cell-based, mouse; settings: FIG. 5
Experimental: Three cochlea per treatment, obtained from P3-4 mouse pups, were cultured in 0.4 micrometer MilliCell-CM inserts with NeuroBasal A medium plus B27 supplement. After 24 hours in culture, ebselen was added to the medium, incubated for ten minutes, and then cisplatin was added to the medium at a final concentration of 43 μM. A first control treatment included 43 μM cisplatin. A second control treatment included 47 μM ebselen without the addition of cisplatin. All cultures were incubated for 24 hours at 37° C. in 5% carbon dioxide.
The explants were then harvested, fixed, and stained with calbindin (which detects hair cells) and DAPI (4′,6-Diamindino-2-phenylindole; for detection of nuclear DNA).

[13] = tested on: cochlear outer hair cells; test: Count of outer auditory hair cells in excised cochleae after cisplatin; format: in vivo, rat; settings: cisplatin and ebselen versus cisplatin, saline and DMSO; FIG. 8A, 8B
Experimental: as §3
Additionally, cochleae were excised from rats treated with the combination of cisplatin and ebselen as described in this Example. Cochleae were also excised from rats treated with cisplatin and saline and DMSO (control). The number of outer auditory hair cells in the excised cochlea were counted at intervals of 0.1 mm along the cochlea. Representative results from a control rat and a treated rat are shown in FIG. 8A and FIG. 8B, respectively.

[14] = tested on: TOV-21G adenocarcinoma/clear cell carcinoma ovarian cancer cells; test: MTT cytotoxicity study with ebselen and allopurinol; format: cell-based, human; settings: each drug 100 μM, no cisplatin/paclitaxel
Experimental: as §1, with “67-72 hours. Control wells were included as follows: no drug, ebselen, allopurinol, ebselen and allopurinol, and cisplatin/paclitaxel.” for “67-72 hours.”
as §2, with “measured. The results of the MTT assay for the different ovarian cancer cell lines tested are shown in FIGS. 9A-16C and are summarized below in TABLE 3.” for “measured.”

[15] = all cell lines tested, concentration range from 20 μM to 100 μM

SMILES	effect on the ability of cisplatin to kill NuTu-19 cells [1]	Percent live cells after 96 hour drug treatment [2] [%]	cytotoxicity on the ovarian cancer cell lines [3, 15]	Percent live cells after 96 hour drug treatment [4] [%]	Percent live cells after 96 hour drug treatment [5] [%]	Percent live cells after 96 hour drug treatment [6] [%]	Percent live cells after 96 hour drug treatment [7] [%]	Percent live cells after 96 hour drug treatment [8] [%]	Percent live cells after 96 hour drug treatment [9] [%]	other results
Oc1ncnc2[nH]ncc12 [allopurinol]	does not inhibit the ability of cisplatin to kill NuTu-19 ovarian cancer tumor cells	~80	did not have a toxic effect	~80	~90	~90	~100	~100	~100	
N.N.[Cl][Pt][Cl] [cisplatin, cis-diaminedichloroplatinum]										Tumor Response % Complete (NuTu-19 tumors; rats that showed no sign of tumor burden): 57%; Tumor Response % Partial (NuTu-19 tumors; rats that showed some evidence of tumor burden): 43%; Tumor Response % No (NuTu-19 tumors; rats with tumors not responsive to cisplatin treatment): 0%; killing of cultured NuTu-19 ovarian cancer cells ([1]; incubation for 24 hours in the presence of cisplatin, FIG. 1): killed; patients who experience significant hearing loss [10]: up to 90%
O=c1c2ccccc2[se]n1-c1ccccc1 [ebselen, 2-phenyl-1,2-benzoisoselenazol-3(2H)-one]	does not inhibit the ability of cisplatin to kill NuTu-19 ovarian cancer tumor cells	~20	induced dose-dependant cytotoxicity	~0	~40	~20	~40	~18	~20	adverse events in human clinical testing [11]: no adverse events were identified; toxicity in a non-cancer cell line (non-cancer cell line): non-toxic; permanent threshold shift (PTS) in hearing [12]: PTS is less; protection of inner ear hair cells from damage by cisplatin (inner ear hair cells; 47 μM ebselen plus 43 μM cisplatin, 24 hours, in vitro): protects inner ear hair cells from damage by cisplatin; cytotoxic effect on cochlear inner ear cells (inner ear hair cells; ebselen 47 μM without cisplatin): does not appear to have a cytotoxic effect; effect on the chemotherapeutic activity of cisplatin and paclitaxel in multi-drug chemotherapy resistant cell lines ([3]; ES-2, SKOV-3 and OVCAR-3): enhanced the chemotherapeutic activity of cisplatin and paclitaxel; effect on the chemotherapeutic effect of cisplatin plus paclitaxel [3, 15]: enhances the chemotherapeutic effect of cisplatin plus paclitaxel; percentage of outer hair cells missing in cochleae [13]: less; Percent live cells after 96 hour drug treatment [14]: ~18%

Reference: patent publication US20110020470A1, “METHODS AND COMPOSITIONS FOR TREATING CANCER” (SOUND PHARMACEUTICALS INCORPORATED, priority 2005, published 2011)
